Laboratory results reported in ChEMBL document CHEMBL1799917, “Isolation, sequencing, and structure-activity relationships of cyclotides” (J Nat Prod, 2010).
Converted amounts (≈) assume the structure as drawn. Where a SMILES comes first, the peptide text is derived from it. Bridges are numbered along the chain shown (N, C = ends). [ ]: non-standard residue; d: D form. aThr = C[C@H](O)[C@H](N)C(=O)O

Experiments:
[1] = tested on: U-937; experiment: Cytotoxicity against human vincristine-resistant U937 cells after 72 hrs by fluorometric microculture cytotoxicity assay; format: functional, cell-based; conditions: U-937, 72 h
[2] = tested on: CCRF-CEM; experiment: Cytotoxicity against human CCRF-CEM cells after 72 hrs by fluorometric microculture cytotoxicity assay; format: functional, cell-based
[3] = tested on: ACHN; experiment: Cytotoxicity against human ACHN cells after 72 hrs by fluorometric microculture cytotoxicity assay; format: functional, cell-based
[4] = Cytotoxicity against human CEM/VM1 cells after 72 hrs by fluorometric microculture cytotoxicity assay; format: functional, cell-based; conditions: CEM-VM1, 72 h
[5] = Cytotoxicity against human 8226/LR-5 cells after 72 hrs by fluorometric microculture cytotoxicity assay; format: functional, cell-based
[6] = tested on: U-937/GTB; experiment: Cytotoxicity against human U937/GTB cells after 72 hrs by fluorometric microculture cytotoxicity assay; format: functional, cell-based
[7] = Cytotoxicity against human 8226/DOX40 cells after 72 hrs by fluorometric microculture cytotoxicity assay; format: functional, cell-based
[8] = tested on: RPMI-8226; experiment: Cytotoxicity against human RPMI8226/S cells after 72 hrs by fluorometric microculture cytotoxicity assay; format: functional, cell-based
[9] = tested on: R1; experiment: Cytotoxicity against mouse R1 cells after 72 hrs by fluorometric microculture cytotoxicity assay; format: cell-based; conditions: R1, 72 h
[10] = Hemolytic activity in human RBC; format: ADME, cell-based, Erythrocyte; conditions: human red blood cells, read-out: HD50 (the source's name)
[11] = tested on: Human immunodeficiency virus 1; experiment: Antiviral activity against HIV1 infected in human CEM-SS cells assessed as protection against virus-induced cytopathic effect by XTT method; format: functional, organism-based; conditions: Human immunodeficiency virus 1, CEM-SS
[12] = tested on: Klebsiella oxytoca; experiment: Antimicrobial activity against Klebsiella oxytoca ATCC 49131; format: functional
[13] = tested on: Proteus vulgaris; experiment: Antimicrobial activity against Proteus vulgaris ATCC 49132; format: functional
[14] = tested on: CEM-SS (Homo sapiens); experiment: Cytotoxicity against human CEM-SS cells
[15] = tested on: Kluyveromyces marxianus; experiment: Antimicrobial activity against Candida kefyr ATCC 37095; format: functional
[16] = tested on: Staphylococcus aureus; experiment: Antimicrobial activity against Staphylococcus aureus ATCC 29213; format: functional
[17] = tested on: Escherichia coli; experiment: Antimicrobial activity against Escherichia coli ATCC 25922; format: functional
[18] = tested on: Pseudomonas aeruginosa; experiment: Antimicrobial activity against Pseudomonas aeruginosa ATCC 27853; format: functional
[19] = Hemolytic activity in human type A RBC; format: ADME, cell-based, Erythrocyte; conditions: human type A red blood cells, read-out: HD50 (the source's name)
[20] = tested on: Candida tropicalis; experiment: Antimicrobial activity against Candida tropicalis ATCC 37097; format: functional
[21] = Hemolytic activity in human type A RBC assessed as concentration required to cause 11% hemolysis after 1 hr by microtitre plate; format: ADME, cell-based; conditions: erythrocyte

CC(C)C[C@@H]1NC(=O)CNC(=O)[C@H](CC(N)=O)NC(=O)[C@H](CCCNC(=N)N)NC(=O)[C@H]([C@@H](C)O)NC(=O)[C@@H]2CSSC[C@@H]3NC(=O)[C@H]([C@@H](C)O)NC(=O)CNC(=O)CNC(=O)[C@H](C(C)C)NC(=O)[C@@H]4CSSC[C@H](NC(=O)[C@H](CO)NC(=O)[C@H](CSSC[C@H](NC(=O)[C@H](C(C)C)NC(=O)[C@@H]5CCCN5C1=O)C(=O)NCC(=O)N[C@@H](CCC(=O)O)C(=O)N[C@@H]([C@@H](C)O)C(=O)N4)NC(=O)CNC(=O)[C@@H]1CCCN1C(=O)[C@H]([C@@H](C)O)NC(=O)[C@H](CC(N)=O)NC3=O)C(=O)N[C@@H](CO)C(=O)N[C@@H](Cc1c[nH]c3ccccc13)C(=O)N1CCC[C@H]1C(=O)N[C@@H](C(C)C)C(=O)N2
IC50 [1]: 2730 nM
IC50 [2]: 2730 nM
IC50 [3]: 2730 nM
IC50 [4]: 2730 nM
IC50 [5]: 2730 nM
IC50 [6]: 2730 nM
IC50 [7]: 2730 nM
IC50 [8]: 2730 nM
IC50 [9]: 2730 nM
HC50 [10]: 50 µM

CC[C@H](C)[C@@H]1NC(=O)[C@@H]2CCCN2C(=O)[C@H](C(C)C)NC(=O)CNC(=O)[C@H](CC(N)=O)NC(=O)[C@H](CCCNC(=N)N)NC(=O)[C@H]([C@@H](C)O)NC(=O)[C@@H]2CSSC[C@@H]3NC(=O)[C@H]([C@@H](C)O)NC(=O)CNC(=O)[C@H](CC(C)C)NC(=O)[C@H]([C@@H](C)O)NC(=O)[C@@H]4CSSC[C@H](NC(=O)[C@H](CO)NC(=O)[C@H](CSSC[C@H](NC1=O)C(=O)NCC(=O)N[C@@H](CCC(=O)O)C(=O)N[C@@H]([C@@H](C)O)C(=O)N4)NC(=O)CNC(=O)[C@H](C)NC(=O)[C@H]([C@@H](C)O)NC(=O)[C@H](Cc1ccc(O)cc1)NC3=O)C(=O)N[C@@H](CO)C(=O)N[C@@H](Cc1c[nH]c3ccccc13)C(=O)N1CCC[C@H]1C(=O)N[C@@H](C(C)C)C(=O)N2 (cyclo(AGCSCSWPVCTRNGVPICGETCTLGTCYT); disulfide 3-18, 5-22, 10-27)
IC50 [1]: 2630 nM
IC50 [2]: 2630 nM
IC50 [3]: 2630 nM
IC50 [4]: 2630 nM
IC50 [5]: 2630 nM
IC50 [6]: 2630 nM
IC50 [7]: 2630 nM
IC50 [8]: 2630 nM
IC50 [9]: 2630 nM

CC[C@H](C)[C@@H]1NC(=O)[C@H](CCSC)NC(=O)[C@H](C)NC(=O)[C@@H]2CSSC[C@@H]3NC(=O)[C@H](CO)NC(=O)[C@@H]4CSSC[C@H](NC(=O)[C@H](CO)NC(=O)[C@H]([C@@H](C)CC)NC(=O)[C@H](CO)NC(=O)[C@H](CC(N)=O)NC(=O)[C@H](CC(C)C)NC(=O)[C@H](Cc5ccc(O)cc5)NC(=O)[C@H](CSSC[C@H](NC(=O)[C@H](Cc5ccccc5)NC(=O)[C@H](CO)NC1=O)C(=O)N[C@@H](Cc1ccccc1)C(=O)N[C@@H]([C@@H](C)O)C(=O)N[C@@H](CCC(=O)O)C(=O)N[C@@H](C(C)C)C(=O)N[C@@H]([C@@H](C)CC)C(=O)NCC(=O)N4)NC(=O)[C@H](C(C)C)NC(=O)[C@H](CCCCN)NC(=O)[C@H](CC(N)=O)NC(=O)[C@H](CCCCN)NC3=O)C(=O)NCC(=O)N[C@@H](CCC(=O)O)C(=O)N[C@@H](CO)C(=O)N2 (cyclo(AMISFCFTEVIGCSCKNKVCYLNSISCGESC); disulfide 6-20, 13-27, 15-31)
EC50 [11]: 870 nM

CC[C@H](C)[C@@H]1NC(=O)[C@@H]2CSSC[C@@H]3NC(=O)[C@H](C(C)C)NC(=O)[C@H](CCCCN)NC(=O)[C@H](CC(N)=O)NC(=O)[C@H](CCCCN)NC(=O)[C@@H]4CSSC[C@H](NC(=O)[C@H](CO)NC(=O)[C@H](CCC(=O)O)NC(=O)CNC(=O)[C@H](CSSC[C@H](NC(=O)CNC(=O)[C@H](CC(C)C)NC(=O)[C@H](CC(C)C)NC(=O)[C@H]([C@@H](C)O)NC(=O)[C@H](CO)NC1=O)C(=O)N[C@@H](CO)C(=O)N4)NC(=O)[C@@H]1CCCN1C(=O)[C@H]([C@@H](C)CC)NC(=O)[C@H](C(C)C)NC(=O)CNC(=O)[C@H](CC(N)=O)NC(=O)[C@H](CCCNC(=N)N)NC(=O)[C@H](Cc1ccc(O)cc1)NC3=O)C(=O)N[C@@H](C(C)C)C(=O)N[C@@H](Cc1ccccc1)C(=O)N[C@@H]([C@@H](C)CC)C(=O)N1CCC[C@H]1C(=O)N2 [CIRCULIN B] (cyclo(CGESCVFIPCISTLLGCSCKNKVCYRNGVIP); disulfide 1-17, 5-19, 10-24)
MIC [12]: 8.2 µM (≈ 26.9 µg/mL)
MIC [13]: 6.8 µM (≈ 22.3 µg/mL)
IC50 [14]: 500 nM
MIC [15]: 29 µM (≈ 95.2 µg/mL)
MIC [16]: 13.5 µM (≈ 44.3 µg/mL)
MIC [17]: 0.41 µM (≈ 1.35 µg/mL)
MIC [18]: 25.5 µM (≈ 83.7 µg/mL)
HC50 [19]: 550 µM
IC50 [9]: 820000 nM

CC[C@H](C)[C@@H]1NC(=O)[C@@H]2CCCN2C(=O)[C@H](CS)NC(=O)CNC(=O)[C@H](CCC(=O)O)NC(=O)[C@H](CO)NC(=O)[C@H](CS)NC(=O)[C@H](C(C)C)NC(=O)[C@H](Cc2ccccc2)NC(=O)[C@H]([C@@H](C)CC)NC(=O)[C@@H]2CCCN2C(=O)[C@H](CS)NC(=O)[C@H]([C@H](C)O)NC(=O)[C@H](C(C)C)NC(=O)[C@H]([C@H](C)O)NC(=O)[C@H](C)NC(=O)[C@H](CC(C)C)NC(=O)[C@H](CC(C)C)NC(=O)CNC(=O)[C@H](CS)NC(=O)[C@H](CO)NC(=O)[C@H](CS)NC(=O)[C@H](CCCCN)NC(=O)[C@H](CO)NC(=O)[C@H](CCCCN)NC(=O)[C@H](C(C)C)NC(=O)[C@H](CS)NC(=O)[C@H](Cc2ccc(O)cc2)NC(=O)[C@H](CCCCN)NC(=O)[C@H](CC(N)=O)NC(=O)[C@H](CO)NC1=O [CYCLOPSYCHOTRIDE A] (cyclo(A[aThr]V[aThr]CPIFVCSEGCPISNKYCVKSKCSCGLL))
MIC [12]: 5.8 µM (≈ 18.8 µg/mL)
MIC [13]: 13.2 µM (≈ 42.7 µg/mL)
MIC [20]: 56.5 µM (≈ 183 µg/mL)
MIC [15]: 14 µM (≈ 45.3 µg/mL)
MIC [16]: 39 µM (≈ 126 µg/mL)
MIC [17]: 1.55 µM (≈ 5.02 µg/mL)
MIC [18]: 13.5 µM (≈ 43.7 µg/mL)
HC50 [19]: 405 µM

CC[C@H](C)[C@@H]1NC(=O)[C@H](CO)NC(=O)CNC(=O)[C@H](CC(N)=O)NC(=O)[C@H](CCCCN)NC(=O)[C@H](C)NC(=O)[C@@H]2CSSC[C@@H]3NC(=O)[C@H](CCCCN)NC(=O)CNC(=O)[C@H](C)NC(=O)[C@H](Cc4ccccc4)NC(=O)[C@@H]4CSSC[C@H](NC(=O)[C@H](CO)NC(=O)[C@H](CSSC[C@H](NC(=O)[C@H](C)NC(=O)[C@@H]5CCCN5C1=O)C(=O)NCC(=O)N[C@@H](CCC(=O)O)C(=O)N[C@@H](CO)C(=O)N4)NC(=O)CNC(=O)[C@@H]1CCCN1C(=O)[C@H]([C@@H](C)O)NC(=O)[C@H](Cc1ccc(O)cc1)NC3=O)C(=O)N[C@@H](CO)C(=O)N[C@@H](CCCCN)C(=O)N[C@@H](Cc1ccc(O)cc1)C(=O)N1CCC[C@H]1C(=O)N[C@@H](CC(C)C)C(=O)N2 [CYCLOVIOLACIN O14] (cyclo(ACGESCFAGKCYTPGCSCSKYPLCAKNGSIP); disulfide 2-16, 6-18, 11-24)
Activity [21]: 25 µM

CC[C@H](C)[C@@H]1NC(=O)[C@@H]2CCCN2C(=O)[C@H](Cc2ccc(O)cc2)NC(=O)[C@H](CO)NC(=O)[C@@H]2CSSC[C@@H]3NC(=O)[C@H]([C@@H](C)O)NC(=O)[C@H](CCC(=O)O)NC(=O)CNC(=O)[C@@H]4CSSC[C@H](NC(=O)CNC(=O)[C@@H]5CCCN5C(=O)[C@H]([C@@H](C)O)NC(=O)[C@H](Cc5ccc(O)cc5)NC(=O)[C@H](CSSC[C@H](NC1=O)C(=O)N[C@@H](CCCCN)C(=O)N[C@@H](CCCCN)C(=O)N[C@@H](CC(N)=O)C(=O)NCC(=O)N[C@@H](CC(C)C)C(=O)N[C@@H](C(C)C)C(=O)N1CCC[C@H]1C(=O)N4)NC(=O)[C@H](CCCCN)NC(=O)CNC(=O)[C@H]([C@@H](C)O)NC(=O)[C@H](Cc1ccccc1)NC3=O)C(=O)N[C@@H](CO)C(=O)N2 [CYCLOVIOLACIN O15] (cyclo(CFTGKCYTPGCSCSYPICKKNGLVPCGET); disulfide 1-13, 6-18, 11-26)
Activity [21]: 25 µM

CC(C)C[C@@H]1NC(=O)CNC(=O)[C@H](CC(N)=O)NC(=O)[C@H](C)NC(=O)[C@H]([C@@H](C)O)NC(=O)[C@@H]2CSSC[C@@H]3NC(=O)[C@H]([C@@H](C)O)NC(=O)CNC(=O)CNC(=O)[C@H](C(C)C)NC(=O)[C@@H]4CSSC[C@H](NC(=O)[C@H](CO)NC(=O)[C@H](CSSC[C@H](NC(=O)[C@H](C(C)C)NC(=O)[C@@H]5CCCN5C1=O)C(=O)NCC(=O)N[C@@H](CCC(=O)O)C(=O)N[C@@H]([C@@H](C)O)C(=O)N4)NC(=O)CNC(=O)[C@@H]1CCCN1C(=O)[C@H]([C@@H](C)O)NC(=O)[C@H](CC(N)=O)NC3=O)C(=O)N[C@@H](CO)C(=O)N[C@@H](CCCNC(=N)N)C(=O)N1CCC[C@H]1C(=O)N[C@@H](C(C)C)C(=O)N2 [VIOLAPEPTIDE 1]
HC50 [10]: 50 µM
